Laboratory results reported in the NIST ThermoML archive (doi:10.1016/j.jct.2007.05.011).
± gives the expanded uncertainty stated by the source.

Assay: xn = mol fraction of the nth substance listed
Conditions: 101 kPa, Liquid; for mass density: Vibrating tube method

NCCO.O=CO [2-hydroxyethylammonium formate] + O
Conditions | mass density, 298.15 K [kg/m3] | mass density, 300.65 K [kg/m3] | mass density, 303.15 K [kg/m3] | mass density, 305.65 K [kg/m3] | speed of sound, 295.65 K [m/s] | speed of sound, 298.15 K [m/s] | speed of sound, 300.65 K [m/s] | speed of sound, 303.15 K [m/s]
x2 = 0 | 1176.49 ± 31 | 1174.71 ± 31 | 1172.94 ± 31 | 1171.16 ± 31 | – | 1709 ± 9.8 | 1702.9 ± 9.8 | 1696.8 ± 9.8
x2 = 0.047 | 1176.31 ± 31 | 1174.67 ± 31 | 1173.02 ± 31 | 1171.38 ± 31 | – | 1738.7 ± 9.8 | 1733.6 ± 9.8 | 1728.5 ± 9.8
x2 = 0.108 | 1174.91 ± 30 | 1173.29 ± 30 | 1171.66 ± 30 | 1170.03 ± 30 | – | 1740.4 ± 9.7 | 1735.3 ± 9.7 | 1730.3 ± 9.6
x2 = 0.199 | 1172.02 ± 30 | 1170.39 ± 30 | 1168.76 ± 30 | 1167.12 ± 30 | – | 1741.6 ± 9.5 | 1736.7 ± 9.5 | 1731.8 ± 9.4
x2 = 0.311 | 1167.18 ± 30 | 1165.55 ± 30 | 1163.93 ± 30 | 1162.3 ± 30 | – | 1742.5 ± 9.3 | 1737.8 ± 9.2 | 1733.1 ± 9.2
x2 = 0.4 | 1162.32 ± 30 | 1160.7 ± 30 | 1159.09 ± 30 | 1157.47 ± 30 | – | 1741.6 ± 9.1 | 1737.1 ± 9.1 | 1732.6 ± 9.1
x2 = 0.492 | 1155.83 ± 30 | 1154.23 ± 30 | 1152.62 ± 30 | 1151.02 ± 30 | 1744.4 ± 9 | 1740.2 ± 9 | 1735.9 ± 8.9 | 1731.6 ± 8.9
x2 = 0.601 | 1145.28 ± 30 | 1143.7 ± 30 | 1142.12 ± 30 | 1140.53 ± 30 | 1738.9 ± 8.8 | 1735.1 ± 8.8 | 1731.2 ± 8.8 | 1727.4 ± 8.8
x2 = 0.699 | 1131.3 ± 30 | 1129.77 ± 30 | 1128.22 ± 30 | 1126.67 ± 30 | 1730.2 ± 8.7 | 1727.1 ± 8.7 | 1723.9 ± 8.7 | 1720.7 ± 8.6
x2 = 0.8 | 1109.23 ± 30 | 1107.79 ± 30 | 1106.33 ± 30 | 1104.86 ± 30 | 1705.6 ± 8.5 | 1703.7 ± 8.5 | 1701.8 ± 8.5 | 1699.7 ± 8.5
x2 = 0.9 | 1071.48 ± 30 | 1070.24 ± 30 | 1068.98 ± 30 | 1067.69 ± 30 | 1647.6 ± 8.2 | 1648.3 ± 8.2 | 1648.7 ± 8.2 | 1649 ± 8.2
x2 = 0.95 | 1041.28 ± 30 | 1040.27 ± 30 | 1039.22 ± 30 | 1038.12 ± 30 | 1588.8 ± 8 | 1591.7 ± 8 | 1594.4 ± 8 | 1596.8 ± 8
